Laboratory results as given in US20060009478A1, “Methods for the treatment of back pain” (priority 2003, published 2006).
Several values for one entry are separate records, joined by “and”; a condition that tells them apart may be missing. Identical values can stand only once.

What was measured:
IL10 = experiment: Plasma cytokine concentration, Pointilliste Human Th1/Th2 Cytokine Canvas; type: in vivo; conditions: OXY = oxycodone QID, BID/QID = combination drug of oxycodone and naltrexone BID/QID
Description: (§1) Plasma samples from selected subjects in the clinical study were used to assay for the presence and concentration of selected cytokines.
(§2) Plasma samples were analyzed using a commercial cytokine assay from Pointilliste (www.pointilliste.com) to quantify the concentrations of IL2, IL4, IL5, IL6, IL10, IL13, GM-CSF, interferon and TNFα. Plasma samples were separately analyzed for IL1αand IL1β, which were quantitated using a conventional cytokine assay by Pointilliste. The cytokine assay for the quantitation of IL2, IL4, IL5, IL6, IL10, IL13, GM-CSF, interferon and TNFα employed, Pointilliste's Human Th1/Th2 Cytokine Canvas product which contains binding sites for each of these nine cytokines.
(§3) Two measurements (duplicates) for each cytokine were possible for each plasma sample applied to a canvas, since the canvas has two binding sites for each cytokine.
(§4) Fifty-seven frozen human plasma samples containing EDTA as an anticoagulant were thawed on ice and transferred to a sterile 96-deep well polypropylene plate. The plate was centrifuged briefly at 4° C. to clarify the plasma. Aliquots of clarified plasma were removed for cytokine analysis, and the remaining samples in the 96-deep well polypropylene plate were stored at −80° C.
(§5) The aliquots of clarified plasma were transferred to sterile non-protein binding 96-well polypropylene plates to enable parallel processing of the samples. Two different 96 well plates were used, and each received a subsample of the aliquots at different dilutions. Two dilutions (1 in 1 and 1 in 10) of each sample were assayed on two separate human Th1/Th2 cytokine canvases. In order to quantify the cytokine concentrations, standard curves were generated for each dilution. A mixture of 9 cytokines was run on each of the canvases and used to calculate a standard curve, which was used to determine the amount of each cytokine in the samples. The standard curves were plotted with the signal intensity as a function of the cytokine concentration in ng/ml. A CCD camera was used with Pointilliste's Canvas Analysis Tools software to generate data corresponding to cytokine concentrations.

IL13 = experiment: as above; type: in vivo; conditions: OXY = oxycodone QID, BID/QID = combination drug of oxycodone and naltrexone BID/QID
Description: as §1, §2, §3, §4, §5

IL2 = experiment: as above; type: in vivo; conditions: OXY = oxycodone QID, BID/QID = combination drug of oxycodone and naltrexone BID/QID
Description: as §1, §2, §3, §4, §5

IL4 = experiment: as above; type: in vivo; conditions: OXY = oxycodone QID, BID/QID = combination drug of oxycodone and naltrexone BID/QID
Description: as §1, §2, §3, §4, §5

IL6 = experiment: as above; type: in vivo; conditions: OXY = oxycodone QID, BID/QID = combination drug of oxycodone and naltrexone BID/QID
Description: as §1, §2, §3, §4, §5

TNFα = experiment: as above; type: in vivo; conditions: OXY = oxycodone QID, BID/QID = combination drug of oxycodone and naltrexone BID/QID
Description: as §1, §2, §3, §4, §5

interferon gamma = experiment: as above; type: in vivo; conditions: OXY = oxycodone QID, BID/QID = combination drug of oxycodone and naltrexone BID/QID
Description: as §1, §2, §3, §4, §5

[1] = tested on: patients with moderate to severe chronic pain due to osteoarthritis of the hip or knee; conditions: 3-week study; intent to treat population
[2] = individual measurements of plasma samples, listed as OXY
[3] = treatment group mean, random sample of subjects

COc1ccc2c3c1O[C@H]1C(=O)CC[C@@]4(O)[C@@H](C2)N(C)CC[C@]314 [OXY QID, oxycodone]
IL10 cytokine concentration (IL10; [2]): 0.07237 ng/mL and 0.2164 ng/mL and 0.2235 ng/mL and 0.2438 ng/mL and 0.2959 ng/mL and 0.3757 ng/mL and 0.9598 ng/mL and 1.236 ng/mL and 1.26 ng/mL and 1.394 ng/mL | Mean of IL10 concentrations (IL10; [3]): 0.628 ng/mL | IL13 cytokine concentration (IL13; [2]): 2.362 ng/mL and 3.291 ng/mL and 3.392 ng/mL and 0.06466 ng/mL and 0.073 ng/mL and 0.1092 ng/mL and 0.1415 ng/mL and 0.1418 ng/mL and 0.1451 ng/mL and 0.1509 ng/mL and 0.169 ng/mL and 0.2847 ng/mL and 0.3385 ng/mL and 0.37 ng/mL and 0.6256 ng/mL and 0.941 ng/mL and 1.09 ng/mL and 2.079 ng/mL | Mean of IL13 concentrations (IL13; [3]): 0.876 ng/mL | IL2 cytokine concentration (IL2; [2]): 0.1202 ng/mL and 0.1501 ng/mL and 0.1613 ng/mL and 0.1672 ng/mL and 0.208 ng/mL and 0.2689 ng/mL and 0.3259 ng/mL and 0.4012 ng/mL and 0.4755 ng/mL and 0.5532 ng/mL and 0.7233 ng/mL and 1.583 ng/mL and 1.817 ng/mL and 0.092 ng/mL | Mean of IL2 concentrations (IL2; [3]): 0.503 ng/mL | IL4 cytokine concentration (IL4; [2]): 0.0907 ng/mL and 0.09132 ng/mL and 0.1379 ng/mL and 0.1411 ng/mL and 0.2369 ng/mL and 0.2651 ng/mL and 0.4655 ng/mL and 0.4725 ng/mL | Mean of IL4 concentrations (IL4; [3]): 0.238 ng/mL | IL6 cytokine concentration (IL6; [2]): 0.04453 ng/mL and 0.0579 ng/mL and 0.06949 ng/mL and 0.0733 ng/mL and 0.07724 ng/mL and 0.0774 ng/mL and 0.1107 ng/mL and 0.1115 ng/mL and 0.1391 ng/mL and 0.1469 ng/mL and 0.3354 ng/mL and 0.3599 ng/mL and 0.5957 ng/mL and 0.604 ng/mL | Mean of IL6 concentrations (IL6; [3]): 0.2 ng/mL | TNF cytokine concentration (TNFα; [2]): 0.05312 ng/mL and 0.05316 ng/mL and 0.05332 ng/mL and 0.06095 ng/mL and 0.1469 ng/mL and 0.2 ng/mL and 0.5152 ng/mL and 0.5153 ng/mL | Mean of TNF concentrations (TNFα; [3]): 0.2 ng/mL | IFN cytokine concentration (interferon gamma; [2]): 0.07226 ng/mL and 0.07442 ng/mL and 0.2197 ng/mL and 0.2407 ng/mL | Mean of IFN concentrations (interferon gamma; [3]): 0.152 ng/mL | Discontinuation of treatment because of adverse event: Any adverse event, % of patients [1]: 28.4% | Discontinuation of treatment because of adverse event: Any adverse event, number of patients [1]: 29 | Discontinuation of treatment because of adverse event: Constipation, % of patients [1]: 1.0% | Discontinuation of treatment because of adverse event: Constipation, number of patients [1]: 1 | Discontinuation of treatment because of adverse event: Diarrhea, % of patients [1]: 0.0% | Discontinuation of treatment because of adverse event: Diarrhea, number of patients [1]: 0 | Discontinuation of treatment because of adverse event: Dizziness, % of patients [1]: 1.0% | Discontinuation of treatment because of adverse event: Dizziness, number of patients [1]: 1 | Discontinuation of treatment because of adverse event: Euphoric mood, % of patients [1]: 0.0% | Discontinuation of treatment because of adverse event: Euphoric mood, number of patients [1]: 0 | Discontinuation of treatment because of adverse event: Eye disorders, % of patients [1]: 0.0% | Discontinuation of treatment because of adverse event: Eye disorders, number of patients [1]: 0 | Discontinuation of treatment because of adverse event: Gastrointestinal disorders, % of patients [1]: 12.7% | Discontinuation of treatment because of adverse event: Gastrointestinal disorders, number of patients [1]: 13 | Discontinuation of treatment because of adverse event: General disorders and administration site conditions, % of patients [1]: 2.0% | Discontinuation of treatment because of adverse event: General disorders and administration site conditions, number of patients [1]: 2 | Discontinuation of treatment because of adverse event: Headache, % of patients [1]: 2.0% | Discontinuation of treatment because of adverse event: Headache, number of patients [1]: 2 | Discontinuation of treatment because of adverse event: Lethargy, % of patients [1]: 0.0% | Discontinuation of treatment because of adverse event: Lethargy, number of patients [1]: 0 | Discontinuation of treatment because of adverse event: Nausea, % of patients [1]: 6.9% | Discontinuation of treatment because of adverse event: Nausea, number of patients [1]: 7 | Discontinuation of treatment because of adverse event: Nervous system disorders, % of patients [1]: 7.8% | Discontinuation of treatment because of adverse event: Nervous system disorders, number of patients [1]: 8 | Discontinuation of treatment because of adverse event: Pruritus, % of patients [1]: 1.0% | Discontinuation of treatment because of adverse event: Pruritus, number of patients [1]: 1 | Discontinuation of treatment because of adverse event: Psychiatric disorders, % of patients [1]: 1.0% | Discontinuation of treatment because of adverse event: Psychiatric disorders, number of patients [1]: 1 | Discontinuation of treatment because of adverse event: Sedation, % of patients [1]: 2.0% | Discontinuation of treatment because of adverse event: Sedation, number of patients [1]: 2 | Discontinuation of treatment because of adverse event: Skin and subcutaneous tissue disorders, % of patients [1]: 2.9% | Discontinuation of treatment because of adverse event: Skin and subcutaneous tissue disorders, number of patients [1]: 3 | Discontinuation of treatment because of adverse event: Sommolence, % of patients [1]: 2.0% | Discontinuation of treatment because of adverse event: Sommolence, number of patients [1]: 2 | Discontinuation of treatment because of adverse event: Upper abdominal pain, % of patients [1]: 0.0% | Discontinuation of treatment because of adverse event: Upper abdominal pain, number of patients [1]: 0 | Discontinuation of treatment because of adverse event: Vomiting, % of patients [1]: 3.9% | Discontinuation of treatment because of adverse event: Vomiting, number of patients [1]: 4
